Assays:
Type in all cases: cell-based
[1] = biological target: HER2 (A775_G775insYVMA) expressing Ba/F3 stable cell line (Homo sapiens, UniProt P04626, DUP772-775, cells depend on it); assay: Cellular proliferation (Alamar Blue) assay, HER2 (A775_G775insYVMA) Ba/F3; conditions: 72 hr incubation, read-out: YVMA IC50
Description: (§1) Example 2: Cellular Proliferation (Alamar Blue) Assays
(§2) • 1. EGFR(D770_N771insSVD) expressing Ba/F3 stable cell line • 2. EGFR (A767_dupASV) expressing Ba/F3 stable cell line • 3. A431 cells • 4. EGFR (H773insNPH) expressing Ba/F3 stable cell line • 5. HER2 (A775_G775insYVMA) expressing Ba/F3 stable cell line
(§3) • 1. Seed cells at 5000 for A431 and 15,000 cells for Ba/F3 in 100 μL/well in complete media (for A431: DMEM with 10% FBS and for Ba/F3 cells: RPMI with 10% FBS) in • 96-well tissue culture plate. Leave outer wells without cells for background measurements. Incubate at 37 degree Celsius in 5% C02 humidified incubator for 16-18 hours. • 2. Add 0.025 ml of 5× concentration compound dilution or DMSO control. Final compound concentration range is 10-0.0005 μM prepared in 3-fold serial dilutions. Incubate for 72 hr at 37 degree Celsius in 5% CO2 humidified incubator. • 3. Add 0.0125 ml Alamar Blue™ reagent to each well with multi-channel pipette and tap gently on each side of the plate to mix. Incubate for 3 hours at 37 degree Celsius in 5% CO2 humidified incubator. • 4. Read plates on fluorescence reader (Tecan Spark Control, Device: Spark, Serial #: 1801006040) at 540 nm excitation, 590 nm emission wavelength. • 5. Data analysis was performed using XLfit 5.5.0.5.

[2] = biological target: EGFR (H773insNPH) expressing Ba/F3 stable cell line (Homo sapiens, UniProt P00533, DUP771-773, cells depend on it); assay: Cellular proliferation (Alamar Blue) assay, EGFR (H773insNPH) Ba/F3; conditions: 72 hr incubation, read-out: NPH IC50
Chain of EGFR (H773insNPH) expressing Ba/F3 stable cell line (P00533 with tags, fused parts or gaps DUP771-773): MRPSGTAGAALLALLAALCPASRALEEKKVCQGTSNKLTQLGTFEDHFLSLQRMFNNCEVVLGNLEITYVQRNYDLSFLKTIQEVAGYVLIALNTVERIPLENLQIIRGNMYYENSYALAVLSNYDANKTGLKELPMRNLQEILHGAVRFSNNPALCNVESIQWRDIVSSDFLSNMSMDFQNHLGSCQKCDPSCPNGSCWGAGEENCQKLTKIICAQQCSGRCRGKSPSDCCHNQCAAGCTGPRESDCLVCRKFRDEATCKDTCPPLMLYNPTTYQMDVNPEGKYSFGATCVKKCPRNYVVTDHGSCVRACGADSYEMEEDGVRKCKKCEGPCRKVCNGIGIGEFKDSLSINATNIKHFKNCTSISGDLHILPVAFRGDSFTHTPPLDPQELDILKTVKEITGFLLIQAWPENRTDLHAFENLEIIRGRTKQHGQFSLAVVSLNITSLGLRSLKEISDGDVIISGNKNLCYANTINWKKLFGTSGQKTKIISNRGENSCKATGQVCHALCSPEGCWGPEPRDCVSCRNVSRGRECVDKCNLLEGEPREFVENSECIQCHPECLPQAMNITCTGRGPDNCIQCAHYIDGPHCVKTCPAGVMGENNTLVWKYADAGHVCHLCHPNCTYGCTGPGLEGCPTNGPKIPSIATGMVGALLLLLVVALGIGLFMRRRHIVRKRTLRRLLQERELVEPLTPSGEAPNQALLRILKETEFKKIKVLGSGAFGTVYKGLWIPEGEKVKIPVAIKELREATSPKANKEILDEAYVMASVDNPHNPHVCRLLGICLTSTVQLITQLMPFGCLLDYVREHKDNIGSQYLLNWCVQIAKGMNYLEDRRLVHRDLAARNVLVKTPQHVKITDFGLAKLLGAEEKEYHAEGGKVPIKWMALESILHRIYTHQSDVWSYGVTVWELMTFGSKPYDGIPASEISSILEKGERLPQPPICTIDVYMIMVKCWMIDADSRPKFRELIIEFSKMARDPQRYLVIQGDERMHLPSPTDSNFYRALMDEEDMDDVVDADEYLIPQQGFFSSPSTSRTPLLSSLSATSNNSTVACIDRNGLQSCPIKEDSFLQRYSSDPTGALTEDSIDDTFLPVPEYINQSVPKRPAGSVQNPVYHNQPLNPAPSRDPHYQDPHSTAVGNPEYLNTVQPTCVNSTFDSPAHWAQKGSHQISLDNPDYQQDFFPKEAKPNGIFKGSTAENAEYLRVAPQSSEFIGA
Description: as §1, §2, §3

[3] = tested on: A431 cells; assay: Cellular proliferation (Alamar Blue) assay, A431 cells; conditions: Homo sapiens, A-431, 72 hr incubation
Description: as §1, §2, §3

[4] = biological target: EGFR (A767_dupASV) expressing Ba/F3 stable cell line (Homo sapiens, UniProt P00533, DUP767-769, cells depend on it); assay: Cellular proliferation (Alamar Blue) assay, EGFR (A767_dupASV) Ba/F3; conditions: 72 hr incubation, read-out: A767 IC50
Chain of EGFR (A767_dupASV) expressing Ba/F3 stable cell line (P00533 with tags, fused parts or gaps DUP767-769): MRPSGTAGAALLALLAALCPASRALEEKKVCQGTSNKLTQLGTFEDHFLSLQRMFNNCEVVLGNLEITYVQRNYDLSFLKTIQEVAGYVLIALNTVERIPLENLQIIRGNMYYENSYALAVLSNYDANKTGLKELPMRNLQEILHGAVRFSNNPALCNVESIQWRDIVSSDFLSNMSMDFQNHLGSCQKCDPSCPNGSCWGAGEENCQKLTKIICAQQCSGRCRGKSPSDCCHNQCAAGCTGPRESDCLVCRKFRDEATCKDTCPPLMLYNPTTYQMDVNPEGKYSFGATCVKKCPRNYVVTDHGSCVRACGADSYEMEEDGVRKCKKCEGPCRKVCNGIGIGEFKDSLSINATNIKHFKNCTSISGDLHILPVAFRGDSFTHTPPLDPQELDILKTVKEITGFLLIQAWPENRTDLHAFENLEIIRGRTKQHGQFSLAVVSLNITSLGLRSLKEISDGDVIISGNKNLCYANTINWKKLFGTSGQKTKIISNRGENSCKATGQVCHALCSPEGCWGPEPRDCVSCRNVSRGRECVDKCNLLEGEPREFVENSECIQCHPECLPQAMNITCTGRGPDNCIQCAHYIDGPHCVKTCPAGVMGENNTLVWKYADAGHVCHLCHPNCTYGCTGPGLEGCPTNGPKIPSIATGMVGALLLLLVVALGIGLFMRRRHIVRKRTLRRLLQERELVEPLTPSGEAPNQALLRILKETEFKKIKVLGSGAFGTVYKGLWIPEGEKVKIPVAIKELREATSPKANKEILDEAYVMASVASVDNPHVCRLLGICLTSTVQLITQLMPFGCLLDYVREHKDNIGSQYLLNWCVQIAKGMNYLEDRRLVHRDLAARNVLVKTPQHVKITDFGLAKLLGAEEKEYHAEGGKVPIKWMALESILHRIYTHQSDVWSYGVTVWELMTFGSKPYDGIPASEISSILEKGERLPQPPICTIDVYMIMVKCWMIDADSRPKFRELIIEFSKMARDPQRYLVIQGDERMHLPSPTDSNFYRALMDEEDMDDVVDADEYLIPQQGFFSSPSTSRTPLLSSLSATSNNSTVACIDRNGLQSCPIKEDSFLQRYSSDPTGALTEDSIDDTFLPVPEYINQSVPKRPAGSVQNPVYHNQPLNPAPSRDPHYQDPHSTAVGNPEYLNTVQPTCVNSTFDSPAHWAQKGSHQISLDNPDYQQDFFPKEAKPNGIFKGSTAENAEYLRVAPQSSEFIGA
Description: as §1, §2, §3

[5] = biological target: EGFR(D770_N771insSVD) expressing Ba/F3 stable cell line (Homo sapiens, UniProt P00533, DUP768-770, cells depend on it); assay: Cellular proliferation (Alamar Blue) assay, EGFR(D770_N771insSVD) Ba/F3; conditions: 72 hr incubation, read-out: D770 IC50
Chain of EGFR(D770_N771insSVD) expressing Ba/F3 stable cell line (P00533 with tags, fused parts or gaps DUP768-770): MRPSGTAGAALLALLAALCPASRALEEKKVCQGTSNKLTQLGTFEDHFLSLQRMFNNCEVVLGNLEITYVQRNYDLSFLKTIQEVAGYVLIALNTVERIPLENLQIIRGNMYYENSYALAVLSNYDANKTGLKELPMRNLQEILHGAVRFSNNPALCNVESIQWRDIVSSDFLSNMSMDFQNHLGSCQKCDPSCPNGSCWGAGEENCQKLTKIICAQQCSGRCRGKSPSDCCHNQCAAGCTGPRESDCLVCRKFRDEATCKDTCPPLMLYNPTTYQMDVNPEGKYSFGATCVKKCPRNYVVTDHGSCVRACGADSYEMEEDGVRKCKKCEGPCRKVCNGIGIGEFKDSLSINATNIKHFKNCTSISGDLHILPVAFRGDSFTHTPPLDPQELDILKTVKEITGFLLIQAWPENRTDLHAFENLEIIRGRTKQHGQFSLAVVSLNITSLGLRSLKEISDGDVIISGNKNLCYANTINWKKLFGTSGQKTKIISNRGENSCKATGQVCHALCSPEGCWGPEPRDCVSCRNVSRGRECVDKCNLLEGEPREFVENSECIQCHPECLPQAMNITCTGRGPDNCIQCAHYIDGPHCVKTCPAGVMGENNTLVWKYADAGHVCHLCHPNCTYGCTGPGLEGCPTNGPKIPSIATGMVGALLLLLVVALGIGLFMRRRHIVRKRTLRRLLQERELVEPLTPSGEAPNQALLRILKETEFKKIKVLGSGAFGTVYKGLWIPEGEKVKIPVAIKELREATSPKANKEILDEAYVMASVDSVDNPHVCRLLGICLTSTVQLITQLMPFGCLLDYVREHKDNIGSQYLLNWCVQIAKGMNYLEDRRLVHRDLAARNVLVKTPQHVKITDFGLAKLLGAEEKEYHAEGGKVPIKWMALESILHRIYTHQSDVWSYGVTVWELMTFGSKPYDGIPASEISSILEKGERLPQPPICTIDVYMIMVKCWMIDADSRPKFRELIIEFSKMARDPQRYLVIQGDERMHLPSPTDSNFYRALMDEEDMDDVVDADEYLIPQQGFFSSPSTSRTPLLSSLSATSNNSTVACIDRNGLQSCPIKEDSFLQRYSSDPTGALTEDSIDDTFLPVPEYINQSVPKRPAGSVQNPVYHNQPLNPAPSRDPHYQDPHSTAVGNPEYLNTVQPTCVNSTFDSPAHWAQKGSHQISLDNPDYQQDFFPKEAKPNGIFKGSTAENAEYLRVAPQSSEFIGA
Description: as §1, §2, §3

Chain of HER2 (A775_G775insYVMA) expressing Ba/F3 stable cell line (P04626 with tags, fused parts or gaps DUP772-775): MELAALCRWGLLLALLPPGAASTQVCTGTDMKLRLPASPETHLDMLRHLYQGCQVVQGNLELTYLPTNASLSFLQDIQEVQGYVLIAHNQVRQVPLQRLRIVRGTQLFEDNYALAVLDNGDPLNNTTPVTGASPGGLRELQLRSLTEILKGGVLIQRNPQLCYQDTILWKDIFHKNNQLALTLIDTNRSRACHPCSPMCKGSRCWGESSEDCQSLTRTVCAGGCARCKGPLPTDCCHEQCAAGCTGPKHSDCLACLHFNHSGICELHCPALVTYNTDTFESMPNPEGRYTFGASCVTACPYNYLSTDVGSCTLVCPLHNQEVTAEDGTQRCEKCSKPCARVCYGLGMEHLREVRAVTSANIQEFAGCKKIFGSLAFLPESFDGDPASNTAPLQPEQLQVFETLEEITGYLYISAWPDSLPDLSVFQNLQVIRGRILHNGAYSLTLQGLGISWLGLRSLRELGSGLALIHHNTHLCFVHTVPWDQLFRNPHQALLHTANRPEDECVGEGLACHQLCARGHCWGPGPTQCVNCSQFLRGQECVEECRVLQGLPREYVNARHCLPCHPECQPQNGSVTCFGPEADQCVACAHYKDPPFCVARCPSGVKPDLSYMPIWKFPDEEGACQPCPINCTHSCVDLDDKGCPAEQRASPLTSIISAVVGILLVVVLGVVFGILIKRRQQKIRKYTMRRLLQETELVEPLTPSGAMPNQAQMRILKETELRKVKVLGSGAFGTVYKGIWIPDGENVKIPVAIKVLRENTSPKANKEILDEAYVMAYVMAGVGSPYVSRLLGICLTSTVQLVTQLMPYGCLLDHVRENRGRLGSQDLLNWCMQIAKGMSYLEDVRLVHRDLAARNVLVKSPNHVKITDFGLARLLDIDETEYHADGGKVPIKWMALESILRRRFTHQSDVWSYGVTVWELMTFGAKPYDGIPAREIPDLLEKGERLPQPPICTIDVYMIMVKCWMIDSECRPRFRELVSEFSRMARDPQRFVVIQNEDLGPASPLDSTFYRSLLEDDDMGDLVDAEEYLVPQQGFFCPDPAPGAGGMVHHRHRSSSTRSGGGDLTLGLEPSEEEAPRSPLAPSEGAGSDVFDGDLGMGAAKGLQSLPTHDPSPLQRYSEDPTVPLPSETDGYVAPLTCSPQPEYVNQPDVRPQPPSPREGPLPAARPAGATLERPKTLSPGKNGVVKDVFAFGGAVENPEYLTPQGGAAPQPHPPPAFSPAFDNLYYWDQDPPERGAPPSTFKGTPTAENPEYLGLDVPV

SMILES	GI50 [1] [nM]	GI50 [2] [nM]	IC50 [3] [nM]	GI50 [4] [nM]	GI50 [5] [nM]
C=CC(=O)Nc1cccc(N2C(=O)N(c3ccccc3)CCc3cnc(Nc4ccc(N5CCN(C)CC5)c(C)c4)nc32)c1 [Compound 41, N-(3-(2-((3-methyl-4-(4-methylpiperazin-1-yl)phenyl)amino)-8-oxo-7-phenyl-5,6,7,8-tetrahydro-9H-pyrimido[4,5-d][1,3]diazepin-9-yl)phenyl)acrylamide]	29	27	102	32	41
C=CC(=O)Nc1cccc(N2C(=O)N(Cc3ccccc3)CCc3cnc(Nc4ccc(F)cc4)nc32)c1 [Compound 18, N-(3-(7-benzyl-2-((4-fluorophenyl)amino)-8-oxo-5,6,7,8-tetrahydro-9H-pyrimido[4,5-d][1,3]diazepin-9-yl)phenyl)acrylamide]	31	152	64	55	45
CN(C)C/C=C/C(=O)Nc1cccc(N2C(=O)N(Cc3ccccc3)CCc3cnc(Nc4cn(C)nc4Cl)nc32)c1 [Compound 1, (E)-N-(3-(7-benzyl-2-((3-chloro-1-methyl-1H-pyrazol-4-yl)amino)-8-oxo-5,6,7,8-tetrahydro-9H-pyrimido[4,5-d][1,3]diazepin-9-yl)phenyl)-4-(dimethylamino)but-2-enamide]	31	86	132	54	105
Cn1cc(Nc2ncc3c(n2)N(c2cccc(NC(=O)/C=C/CN4CCCCC4)c2)C(=O)N(Cc2ccccc2)CC3)c(Cl)n1 [Compound 3, (E)-N-(3-(7-benzyl-2-((3-chloro-1-methyl-1H-pyrazol-4-yl)amino)-8-oxo-5,6,7,8-tetrahydro-9H-pyrimido[4,5-d][1,3]diazepin-9-yl)phenyl)-4-(piperidin-1-yl)but-2-enamide]	31	108	> 10000	42	48
C=CC(=O)Nc1cccc(N2C(=O)N(Cc3ccccc3)CCc3cnc(Nc4ccc(N5CCOCC5)nc4)nc32)c1 [Compound 19, N-(3-(7-benzyl-2-((6-morpholinopyridin-3-yl)amino)-8-oxo-5,6,7,8-tetrahydro-9H-pyrimido[4,5-d][1,3]diazepin-9-yl)phenyl)acrylamide]	24	25	> 10000	10	14
COC/C=C/C(=O)Nc1cccc(N2C(=O)N(Cc3ccccc3)CCc3cnc(Nc4cn(C)nc4Cl)nc32)c1 [Compound 4, (E)-N-(3-(7-benzyl-2-((3-chloro-1-methyl-1H-pyrazol-4-yl)amino)-8-oxo-5,6,7,8-tetrahydro-9H-pyrimido[4,5-d][1,3]diazepin-9-yl)phenyl)-4-methoxybut-2-enamide]	125	103	> 10000	104	98
C=CC(=O)Nc1cccc(N2C(=O)N(c3ccccc3)CCc3cnc(Nc4cccnc4F)nc32)c1 [Compound 43, N-(3-{12-[(2-fluoropyridin-3-yl)amino]-8-oxo-7-phenyl-5H,6H,7H,8H,9H-pyrimido[4,5-d][1,3]diazepin-9-yl}phenyl)prop-2-enamide]	1360	193	> 10000	146	239
C=CC(=O)Nc1cccc(N2C(=O)N(c3ccccc3)CCc3cnc(Nc4ccc(N5CCN(C)CC5)cc4)nc32)c1 [Compound 37, N-(3-(2-((4-(4-methylpiperazin-1-yl)phenyl)amino)-8-oxo-7-phenyl-5,6,7,8-tetrahydro-9H-pyrimido[4,5-d][1,3]diazepin-9-yl)phenyl)acrylamide]	138	100	7	38	89

From patent US20240217977A1, “DIAZEPANONE-FUSED PYRIMIDINE COMPOUNDS, COMPOSITIONS AND MEDICINAL APPLICATIONS THEREOF” (Blueprint Medicines Corporation, priority 2021, published 2024)
